Where two headings read alike, the source gives them in different places.
Legend:
[1] = log P by HPLC on reversed-phase columns (EEC Directive 79/831 Annex V.A8); type: physicochemical
[2] = system: larvae of the mustard beetle (Phaedon cochleariae); assay: Phaedon test (PHAECO spray treatment); conditions: Phaedon cochleariae, 168 h, read-out: activity in % (beetle larvae killed)
[3] = system: caterpillars of the armyworm (Spodoptera frugiperda); assay: Spodoptera frugiperda test (SPODFR spray treatment); type: in vivo; conditions: Spodoptera frugiperda, 168 h, read-out: activity in % (caterpillars killed)
[4] = reversed-phase C18 HPLC column, pH 2.7, HPLC reversed-phase C18, acidic range pH 2.7 (HCOOH), only or first value of the cell, read-out: log P
[5] = application rate 100 g/ha, after 7 days

SMILES	chromatographic logP ([1]; pH 2.7, log P)	pest or weed control at 100 g/ha [2]	pest or weed control at 100 g/ha [3]	chromatographic logP [1, 4]	pest or weed control at 100 g/ha [3, 5]
Cc1cc(C#N)cc(C(=O)NCc2ccc(Cl)nc2)c1NC(=O)c1cc(Cn2nnc(C(F)(F)F)n2)nn1-c1ncccc1Cl [Example 66]	3.11	100%	100%		
Cc1cc(C#N)cc(C(=O)NC(C)c2ccc(Cl)cc2)c1NC(=O)c1cc(Cn2nnc(C(F)(F)F)n2)nn1-c1ncccc1Cl (stereo not drawn) [Example 67]		100%		3.91	100%
Cc1cc(C#N)cc(C(=O)NCc2cccc(S(F)(F)(F)(F)F)c2)c1NC(=O)c1cc(Cn2nnnc2C(F)(F)F)nn1-c1ncccc1Cl [Example 68]		100%		3.69	100%
Cc1cc(C#N)cc(C(=O)NCc2ccccc2)c1NC(=O)c1cc(Cn2nnc(C(F)(F)F)n2)nn1-c1ccccc1Cl [Example 71]		100%		3.77	100%
Cc1cc(Cl)cc(C(=O)Nc2ccc(Cl)cc2)c1NC(=O)c1cc(Cn2nnc(C(F)(F)F)n2)nn1-c1ncccc1Cl [Example 73]	4.17	100%	100%		
Cc1cc(C#N)cc(C(=O)NC(C)c2ccccc2)c1NC(=O)c1cc(Cn2nnc(C(F)(F)F)n2)nn1-c1ccccc1Cl (stereo not drawn) [Example 74]		100%		3.68	100%
Cc1cc(C#N)cc(C(=O)NCc2cccc(Cl)c2)c1NC(=O)c1cc(Cn2nnc(C(F)(F)F)n2)nn1-c1ccccc1Cl [Example 75]		100%		3.76	100%
COc1ccc(CNC(=O)c2cc(C#N)cc(C)c2NC(=O)c2cc(Cn3nnc(C(F)(F)F)n3)nn2-c2ccccc2Cl)cc1 [Example 76]		100%		3.77	100%
Cc1cc(C#N)cc(C(=O)NCc2ccc(Cl)cc2Cl)c1NC(=O)c1cc(Cn2nnc(C(F)(F)F)n2)nn1-c1ccccc1Cl [Example 77]		100%		4.42	100%
Cc1cc(Cl)cc(C(=O)NCc2ccccc2)c1NC(=O)c1cc(Cn2nnc(C(F)(F)F)n2)nn1-c1ncccc1Cl [Example 81]	3.77	100%	100%		
Cc1cc(Cl)cc(C(=O)NCc2ccccc2Cl)c1NC(=O)c1cc(Cn2nnc(C(F)(F)F)n2)nn1-c1ncccc1Cl [Example 82]	4.06	100%	100%		
Cc1cc(Cl)cc(C(=O)NCc2ccccc2F)c1NC(=O)c1cc(Cn2nnc(C(F)(F)F)n2)nn1-c1ncccc1Cl [Example 83]	3.77	100%	100%		
Cc1cc(Cl)cc(C(=O)NC(C)c2ccccc2)c1NC(=O)c1cc(Cn2nnc(C(F)(F)F)n2)nn1-c1ncccc1Cl (stereo not drawn) [Example 84]	3.92	100%	100%		
Cc1cc(Cl)cc(C(=O)N[C@H](C)c2ccccc2)c1NC(=O)c1cc(Cn2nnc(C(F)(F)F)n2)nn1-c1ncccc1Cl [Example 85]	3.92	100%	100%		
Cc1cccc(CNC(=O)c2cc(Cl)cc(C)c2NC(=O)c2cc(Cn3nnc(C(F)(F)F)n3)nn2-c2ncccc2Cl)c1 [Example 89]	4.08	100%	100%		
Cc1cc(Cl)cc(C(=O)NCc2ccc(C(C)(C)C)cc2)c1NC(=O)c1cc(Cn2nnc(C(F)(F)F)n2)nn1-c1ncccc1Cl [Example 91]		100%		4.85	100%
Cc1cc(Cl)cc(C(=O)NCc2ccc(Cl)cc2Cl)c1NC(=O)c1cc(Cn2nnc(C(F)(F)F)n2)nn1-c1ncccc1Cl [Example 92]	4.41	100%	100%		
Cc1cc(Cl)cc(C(=O)NCc2ccc(Cl)c(Cl)c2)c1NC(=O)c1cc(Cn2nnc(C(F)(F)F)n2)nn1-c1ncccc1Cl [Example 93]	4.37	100%	100%		
Cc1cc(Cl)cc(C(=O)NCc2cc(Cl)cc(Cl)c2)c1NC(=O)c1cc(Cn2nnc(C(F)(F)F)n2)nn1-c1ncccc1Cl [Example 94]	4.49	100%	100%		
Cc1cc(Cl)cc(C(=O)NCc2cccc(C(F)(F)F)c2)c1NC(=O)c1cc(Cn2nnc(C(F)(F)F)n2)nn1-c1ncccc1Cl [Example 95]		100%		4.23	100%
Cc1cc(Cl)cc(C(=O)NCc2ccc(C(F)(F)F)cc2)c1NC(=O)c1cc(Cn2nnc(C(F)(F)F)n2)nn1-c1ncccc1Cl [Example 96]		100%		4.21	100%
Cc1cc(Cl)cc(C(=O)NCc2cccc(F)c2)c1NC(=O)c1cc(Cn2nnc(C(F)(F)F)n2)nn1-c1ncccc1Cl [Example 98]	3.79	100%	100%		
Cc1cc(Cl)cc(C(=O)NCc2ccc(F)cc2)c1NC(=O)c1cc(Cn2nnc(C(F)(F)F)n2)nn1-c1ncccc1Cl [Example 99]	3.81	100%	100%		
COc1ccccc1CNC(=O)c1cc(Cl)cc(C)c1NC(=O)c1cc(Cn2nnc(C(F)(F)F)n2)nn1-c1ncccc1Cl [Example 100]	3.94	100%	100%		
COc1cccc(CNC(=O)c2cc(Cl)cc(C)c2NC(=O)c2cc(Cn3nnc(C(F)(F)F)n3)nn2-c2ncccc2Cl)c1 [Example 101]	3.81	100%	100%		
COc1ccc(CNC(=O)c2cc(Cl)cc(C)c2NC(=O)c2cc(Cn3nnc(C(F)(F)F)n3)nn2-c2ncccc2Cl)cc1 [Example 102]	3.76	100%	100%		
Cc1cc(Cl)cc(C(=O)NCc2ccccc2OC(F)(F)F)c1NC(=O)c1cc(Cn2nnc(C(F)(F)F)n2)nn1-c1ncccc1Cl [Example 103]		100%		4.34	100%
Cc1cc(Cl)cc(C(=O)NCc2cccc(OC(F)(F)F)c2)c1NC(=O)c1cc(Cn2nnc(C(F)(F)F)n2)nn1-c1ncccc1Cl [Example 104]		100%		4.36	100%
Cc1cc(Cl)cc(C(=O)NCc2cccc(Cl)c2Cl)c1NC(=O)c1cc(Cn2nnc(C(F)(F)F)n2)nn1-c1ncccc1Cl [Example 105]	4.37	100%	100%		
Cc1cc(Cl)cc(C(=O)NCc2cc(Cl)ccc2Cl)c1NC(=O)c1cc(Cn2nnc(C(F)(F)F)n2)nn1-c1ncccc1Cl [Example 106]	4.39	100%	100%		

Source: patent US8791143B2, “Anthranilic diamide derivatives having cyclic side-chains” (priority 2010, dated 2014)
